Measured values as given in patent publication US9783537B2, “3-(4-ethylnylphenyl) pyridopyrimidinone compounds and process for preparation thereof useful as potential anticancer agents” (Council of Scientific & Industrial Research, priority 2013, dated 2017).
Like-named read-outs stand apart in the source and are kept apart here.

Key:
HL-60(TB) = assay: SRB 48 h growth assay, Leukemia HL-60(TB); format: cell-based, human
A549/ATCC = assay: SRB 48 h growth assay, Non-small Cell Lung A549/ATCC; format: cell-based, human
HOP-62 = assay: SRB 48 h growth assay, Non-small Cell Lung HOP-62; format: cell-based, human; conditions: HOP-62, Non-small Cell Lung
HOP-92 = assay: SRB 48 h growth assay, Non-small Cell Lung HOP-92; format: cell-based, human; conditions: HOP-92, Non-small Cell Lung
NCI-H460 = assay: SRB 48 h growth assay, Non-small Cell Lung NCI-H460; format: cell-based, human; conditions: for GI50: Homo sapiens
NCI-H522 = assay: SRB 48 h growth assay, Non-small Cell Lung NCI-H522; format: cell-based, human
SF-268 = assay: SRB 48 h growth assay, CNS SF-268; format: cell-based, human; conditions: SF-268, CNS
SF-539 = assay: SRB 48 h growth assay, CNS SF-539; format: cell-based, human; conditions: SF-539, CNS
SNB-19 = assay: SRB 48 h growth assay, CNS SNB-19; format: cell-based, human; conditions: SNB-19, CNS
SNB-75 = assay: SRB 48 h growth assay, CNS SNB-75; format: cell-based, human; conditions: SNB-75, CNS
SK-MEL-28 = assay: SRB 48 h growth assay, Melanoma SK-MEL-28; format: cell-based, human; conditions: SK-MEL-28, Melanoma
UACC-257 = assay: SRB 48 h growth assay, Melanoma UACC-257; format: cell-based, human; conditions: UACC-257, Melanoma
IGROV1 = assay: SRB 48 h growth assay, Ovarian IGROV1; format: cell-based, human
OVCAR-4 = assay: SRB 48 h growth assay, Ovarian OVCAR-4; format: cell-based, human; conditions: OVCAR-4, Ovarian
NCI/ADR-RES = assay: SRB 48 h growth assay, Ovarian NCI/ADR-RES; format: cell-based, human
SK-OV-3 = assay: SRB 48 h growth assay, Ovarian SK-OV-3; format: cell-based, human; conditions: SK-OV-3, Ovarian
A498 = assay: SRB 48 h growth assay, Renal A498; format: cell-based, human
ACHN = assay: SRB 48 h growth assay, Renal ACHN; format: cell-based, human
RXF393 = assay: SRB 48 h growth assay, Renal RXF393; format: cell-based, human
SN12C = assay: SRB 48 h growth assay, Renal SN12C; format: cell-based, human
TK-10 = assay: SRB 48 h growth assay, Renal TK-10; format: cell-based, human; conditions: TK-10, Renal
PC-3 = assay: SRB 48 h growth assay, Prostate PC-3; format: cell-based, human; conditions: PC-3, Prostate
MDA-MB-231/ATCC = assay: SRB 48 h growth assay, Breast MDA-MB-231/ATCC; format: cell-based, human
[1] = in vitro anticancer activity, non-small cell lung panel; format: cell-based; conditions: Homo sapiens; nine non-small cell lung cancer cell lines, exposure at least 48 h; read-out: GI50, range over panel
[2] = test system: seven ovarian cancer cell lines (IGROV1, OVCAR-3, OVCAR-4, OVCAR-5, OVCAR-8, NCI/ADR-RES and SK-OV-3); assay: in vitro anticancer activity, ovarian panel; format: cell-based; conditions: Homo sapiens, exposure at least 48 h, read-out: GI50, range over panel
[3] = test system: six breast cancer cell line (MCF-7, MDA-MB-231/ATCC, HS 578T, TD-47D, MDA-MB-468 and BT-549); assay: in vitro anticancer activity, breast panel; format: cell-based; conditions: Homo sapiens; six breast cancer cell lines, exposure at least 48 h; read-out: GI50, range over panel
[4] = Homo sapiens, read-out: Growth Inhibition GI50
[5] = Homo sapiens, read-out: Log10 GI50 (converted)
[6] = Homo sapiens, read-out: Log10 LC50 (converted)

C#Cc1ccc(-n2c(/C=C/c3cc(OC)c(OC)c(OC)c3)nc3ncccc3c2=O)cc1 [4q, (E)-3-(4-Ethynylphenyl)-2-(3,4,5-trimethoxystyryl)pyrido[2,3-d]pyrimidin-4(3H)-one]
Log10 TGI50 (HL-60(TB)): −4.59
GI50 (HL-60(TB); [4]): 3.84 µM
GI50 (HL-60(TB); [5]): 3.8 µM
CC50 (HL-60(TB); [6]): > 100 µM
Log10 TGI50 (A549/ATCC): >−4.00
GI50 (A549/ATCC; [4]): 5.65 µM
GI50 (A549/ATCC; [5]): 5.62 µM
CC50 (A549/ATCC; [6]): > 100 µM
Log10 TGI50 (HOP-62): >−4.00
GI50 (HOP-62; [4]): 13.3 µM
GI50 (HOP-62; [5]): 13.2 µM
CC50 (HOP-62; [6]): > 100 µM
Log10 TGI50 (HOP-92): −5.11
GI50 (HOP-92; [4]): 2.31 µM
GI50 (HOP-92; [5]): 2.29 µM
CC50 (HOP-92; [6]): > 100 µM
Log10 TGI50 (NCI-H460): −4.60
GI50 (NCI-H460; read-out: Growth Inhibition GI50): 4.11 µM
GI50 (NCI-H460; read-out: Log10 GI50 (converted)): 4.07 µM
Log10 TGI50 (NCI-H522): −5.20
GI50 (NCI-H522; [4]): 2.33 µM
GI50 (NCI-H522; [5]): 2.34 µM
CC50 (NCI-H522; [6]): 66.1 µM
GI50 (SF-268; [4]): 5.33 µM
GI50 (SF-268; [5]): 5.37 µM
CC50 (SF-268; [6]): > 100 µM
Log10 TGI50 (SF-268): −4.01
GI50 (SF-539; [4]): 4.57 µM
GI50 (SF-539; [5]): 4.57 µM
CC50 (SF-539; [6]): > 100 µM
Log10 TGI50 (SF-539): −4.42
GI50 (SNB-19; [4]): 16.2 µM
GI50 (SNB-19; [5]): 16.2 µM
CC50 (SNB-19; [6]): > 100 µM
Log10 TGI50 (SNB-19): >−4.00
GI50 (SNB-75; [4]): 3.88 µM
GI50 (SNB-75; [5]): 3.89 µM
CC50 (SNB-75; [6]): > 100 µM
Log10 TGI50 (SNB-75): >−4.00
GI50 (SK-MEL-28; [4]): 34.6 µM
GI50 (SK-MEL-28; [5]): 34.7 µM
CC50 (SK-MEL-28; [6]): > 100 µM
Log10 TGI50 (SK-MEL-28): >−4.00
GI50 (UACC-257; [4]): 9.74 µM
GI50 (UACC-257; [5]): 9.77 µM
CC50 (UACC-257; [6]): > 100 µM
Log10 TGI50 (UACC-257): >−4.00
Log10 TGI50 (IGROV1): >−4.00
GI50 (IGROV1; Homo sapiens, IGROV-1, read-out: Growth Inhibition GI50): 6.08 µM
GI50 (IGROV1; Homo sapiens, IGROV-1, read-out: Log10 GI50 (converted)): 6.03 µM
CC50 (IGROV1; Homo sapiens, IGROV-1, read-out: Log10 LC50 (converted)): > 100 µM
GI50 (OVCAR-4; [4]): 12 µM
GI50 (OVCAR-4; [5]): 12 µM
CC50 (OVCAR-4; [6]): > 100 µM
Log10 TGI50 (OVCAR-4): −4.04
Log10 TGI50 (NCI/ADR-RES): −4.46
GI50 (NCI/ADR-RES; [4]): 3.61 µM
GI50 (NCI/ADR-RES; [5]): 3.63 µM
CC50 (NCI/ADR-RES; [6]): > 100 µM
GI50 (SK-OV-3; [4]): 5.33 µM
GI50 (SK-OV-3; [5]): 5.37 µM
CC50 (SK-OV-3; [6]): > 100 µM
Log10 TGI50 (SK-OV-3): −4.11
Log10 TGI50 (A498): −5.01
GI50 (A498; [4]): 2.63 µM
GI50 (A498; [5]): 2.63 µM
CC50 (A498; [6]): > 100 µM
Log10 TGI50 (ACHN): >−4.00
GI50 (ACHN; [4]): 6.63 µM
GI50 (ACHN; [5]): 6.61 µM
CC50 (ACHN; [6]): > 100 µM
Log10 TGI50 (RXF393): >−4.00
GI50 (RXF393; Homo sapiens, RXF 393, read-out: Growth Inhibition GI50): 7.04 µM
GI50 (RXF393; Homo sapiens, RXF 393, read-out: Log10 GI50 (converted)): 7.08 µM
CC50 (RXF393; Homo sapiens, RXF 393, read-out: Log10 LC50 (converted)): > 100 µM
Log10 TGI50 (SN12C): >−4.00
GI50 (SN12C; [4]): 20.5 µM
GI50 (SN12C; [5]): 20.4 µM
CC50 (SN12C; [6]): > 100 µM
GI50 (TK-10; [4]): 17.3 µM
GI50 (TK-10; [5]): 17.4 µM
CC50 (TK-10; [6]): > 100 µM
Log10 TGI50 (TK-10): −4.20
GI50 (PC-3; [4]): 3.96 µM
GI50 (PC-3; [5]): 3.98 µM
CC50 (PC-3; [6]): > 100 µM
Log10 TGI50 (PC-3): >−4.00
Log10 TGI50 (MDA-MB-231/ATCC): >−4.00
GI50 (MDA-MB-231/ATCC; [4]): 5.53 µM
GI50 (MDA-MB-231/ATCC; [5]): 5.5 µM
CC50 (MDA-MB-231/ATCC; [6]): > 100 µM
GI50 [1]: 1.32 to 3.9 µM
GI50 [2]: 1.67 to 3.61 µM
GI50 [3]: 1.51 to 3.46 µM
